Measured values: patent publication US6737383B1, “Herbicidal oxadiazolidines” (priority 1999, dated 2004)

What was measured:
[1] = test system: bedstraw; assay: Test B pre/postemergence bedstraw; assay type: in vivo, Galium aparine
How it was run: (§1)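 Herbicidal effect was estimated by eye on a ten-point control scale after plants spent twelve to sixteen days in a greenhouse following soil or foliar treatment. Foliar sprays targeted plants at one to four leaves; all doses were formulated in a non-phytotoxic solvent with surfactant.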

[2] = test system: blackgrass; assay: Test B pre/postemergence blackgrass; assay type: in vivo, Alopecurus myosuroides
How it was run: as §1

[3] = test system: surinam grass; assay: Test B pre/postemergence surinam grass; assay type: in vivo, Brachiaria decumbens
How it was run: as §1

[4] = test system: corn; assay: Test B pre/postemergence corn; assay type: in vivo, Zea mays
How it was run: as §1

[5] = test system: giant foxtail; assay: Test B pre/postemergence giant foxtail; assay type: in vivo, Setaria faberii
How it was run: as §1

[6] = test system: morningglory; assay: Test B pre/postemergence morningglory; assay type: in vivo, Ipomoea hederacea
How it was run: as §1

[7] = test system: pigweed; assay: Test B pre/postemergence pigweed; assay type: in vivo, Amaranthus retroflexus
How it was run: as §1

[8] = test system: rape; assay: Test B pre/postemergence rape; assay type: in vivo, Brassica napus
How it was run: as §1

[9] = test system: soybean; assay: Test B pre/postemergence soybean; assay type: in vivo, Glycine max
How it was run: as §1

[10] = test system: sugar beet; assay: Test B pre/postemergence sugar beet; assay type: in vivo, Beta vulgaris; settings: for Plant response rating, Sugarbeets: Rate 250 g/ha
How it was run: as §1

[11] = test system: velvetleaf; assay: Test B pre/postemergence velvetleaf; assay type: in vivo, Abutilon theophrasti; settings: for Plant response rating, Velvetleaf: Rate 250 g/ha
How it was run: as §1

[12] = test system: purple nutsedge; assay: Test B pre/postemergence purple nutsedge; assay type: in vivo, Cyperus rotundus
How it was run: as §1

[13] = test system: rice; assay: Test B flood test rice; assay type: in vivo, Oryza sativa
How it was run: (§2)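 Plants were grown to the 2-leaf stage before treatment with test chemical, then held in a greenhouse for twelve to sixteen days. Injury was visually rated against untreated controls on a 0–10 scale, where 0 is no effect and 10 is complete control.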

[14] = test system: smallflower flatsedge; assay: Test B flood test smallflower flatsedge; assay type: in vivo, Cyperus difformis
How it was run: as §2

[15] = test system: duck salad; assay: Test B flood test duck salad; assay type: in vivo, Heteranthera limosa
How it was run: as §2

[16] = test system: bamyardgrass; assay: Test B flood test barnyardgrass; assay type: in vivo, Echinochloa crus-galli
How it was run: as §2

[17] = Preemergence, Rate 62 g/ha, scale 0 to 10 (0 no effect, 10 complete control)
[18] = Preemergence, Rate 125 g/ha, scale 0 to 10 (0 no effect, 10 complete control)
[19] = Preemergence, Rate 250 g/ha, scale of 0 to 10 where 0 is no effect and 10 is complete control
[20] = Preemergence, Rate 500 g/ha, scale 0 (no effect) to 10 (complete control)
[21] = Rate 500 g/ha, Postemergence, scale 0 to 10, 0 no effect, 10 complete control
[22] = Postemergence, Rate 125 g/ha, scale of 0 to 10 where 0 is no effect and 10 is complete control
[23] = Postemergence, Rate 250 g/ha, scale 0 to 10, 0 no effect, 10 complete control
[24] = Rate 62 g/ha, Postemergence, scale of 0 to 10 where 0 is no effect and 10 is complete control
[25] = Postemergence, Rate 62 g/ha, scale 0 to 10, 0 is no effect, 10 is complete control
[26] = Rate 250 g/ha, Postemergence, scale 0 to 10, 0 is no effect, 10 is complete control
[27] = Preemergence, Rate 125 g/ha, 0 is no effect, 10 is complete control
[28] = Preemergence, scale of 0 to 10 where 0 is no effect and 10 is complete control
[29] = Postemergence, scale 0 to 10, 0 is no effect, 10 is complete control
[30] = Postemergence (flood test species), Rate 125 g/ha, scale of 0 to 10 where 0 is no effect and 10 is complete control
[31] = Rate 62 g/ha, Postemergence section, flood test species, scale of 0 to 10 where 0 is no effect and 10 is complete control
[32] = Rate 250 g/ha, Postemergence (flood test), scale 0 to 10, 0 is no effect, 10 is complete control
[33] = Rate 500 g/ha, listed under Postemergence (flood test species), scale 0 to 10, 0 no effect, 10 complete control
[34] = flood test, listed under Postemergence, Rate 250 g/ha, scale 0 to 10, 0 no effect, 10 complete control

## CCc1noc(C)c1-n1c(=O)on(C(=O)N(c2ccc(F)cc2)C(C)C)c1=O [Compound 101]
[1]; [17]
  Bedstraw plant response rating: 0
[1]; [18]
  Plant response rating, Bedstraw: 0
[1]; [19]
  Plant response rating, Bedstraw: 0
[1]; [20]
  Bedstraw plant response rating: 0
[1]; [21]
  Bedstraw plant response rating: 0
[2]; [22]
  Blackgrass plant response rating: 0
[2]; [23]
  Blackgrass plant response rating: 0
[2]; [17]
  Blackgrass plant response rating: 0
[2]; [18]
  Plant response rating, Blackgrass: 0
[2]; [19]
  Plant response rating, Blackgrass: 0
[2]; [20]
  Blackgrass plant response rating: 0
[2]; [24]
  Blackgrass plant response rating: 0
[2]; [21]
  Blackgrass plant response rating: 0
[3]; [25]
  B. signalgrass plant response rating: 0
[3]; [23]
  B. signalgrass plant response rating: 0
[3]; [17]
  B. signalgrass plant response rating: 0
[3]; [18]
  Plant response rating, B. signalgrass: 0
[3]; [19]
  Plant response rating, B. signalgrass: 0
[3]; [20]
  B. signalgrass plant response rating: 0
[3]; Rate 125 g/ha, Postemergence, scale 0 to 10, 0 no effect, 10 complete control
  B. signalgrass plant response rating: 0
[3]; Rate 500 g/ha, Postemergence, scale of 0 to 10 where 0 is no effect and 10 is complete control
  B. signalgrass plant response rating: 0
[4]; [22]
  Corn plant response rating: 0
[4]; [23]
  Corn plant response rating: 0
[4]; [17]
  Corn plant response rating: 0
[4]; [18]
  Plant response rating, Corn: 0
[4]; [19]
  Plant response rating, Corn: 0
[4]; [20]
  Corn plant response rating: 0
[4]; [24]
  Corn plant response rating: 0
[4]; [21]
  Corn plant response rating: 0
[5]; [22]
  Giant foxtail plant response rating: 0
[5]; [23]
  Giant foxtail plant response rating: 0
[5]; [17]
  Giant foxtail plant response rating: 0
[5]; [18]
  Plant response rating, Giant foxtail: 0
[5]; [19]
  Plant response rating, Giant foxtail: 0
[5]; [20]
  Giant foxtail plant response rating: 0
[5]; [24]
  Giant foxtail plant response rating: 0
[5]; [21]
  Giant foxtail plant response rating: 0
[6]; [22]
  Morningglory plant response rating: 0
[6]; [23]
  Morningglory plant response rating: 1
[6]; [17]
  Morningglory plant response rating: 0
[6]; [18]
  Plant response rating, Morningglory: 0
[6]; [19]
  Plant response rating, Morningglory: 0
[6]; [20]
  Morningglory plant response rating: 0
[6]; [24]
  Morningglory plant response rating: 0
[6]; [21]
  Morningglory plant response rating: 1
[7]; [22]
  Redroot pigweed plant response rating: 0
[7]; [17]
  Redroot pigweed plant response rating: 0
[7]; [18]
  Plant response rating, Redroot pigweed: 0
[7]; [19]
  Plant response rating, Redroot pigweed: 0
[7]; [20]
  Redroot pigweed plant response rating: 0
[7]; [24]
  Redroot pigweed plant response rating: 0
[7]; [26]
  Plant response rating, Redroot pigweed: 0
[7]; [21]
  Redroot pigweed plant response rating: 0
[8]; [22]
  Rape plant response rating: 0
[8]; [23]
  Rape plant response rating: 0
[8]; [17]
  Rape plant response rating: 0
[8]; [18]
  Plant response rating, Rape: 0
[8]; [19]
  Plant response rating, Rape: 0
[8]; [20]
  Rape plant response rating: 0
[8]; [24]
  Rape plant response rating: 0
[8]; [21]
  Rape plant response rating: 0
[9]; [22]
  Soybean plant response rating: 2
[9]; [17]
  Soybean plant response rating: 0
[9]; [18]
  Plant response rating, Soybean: 0
[9]; [19]
  Plant response rating, Soybean: 0
[9]; [20]
  Soybean plant response rating: 0
[9]; [24]
  Soybean plant response rating: 2
[9]; [26]
  Plant response rating, Soybean: 3
[9]; [21]
  Soybean plant response rating: 3
[10]; [22]
  Sugarbeets plant response rating: 0
[10]; [17]
  Sugarbeets plant response rating: 0
[10]; [27]
  Sugarbeets plant response rating (0 to 10 scale): 0
[10]; [28]
  Plant response rating, Sugarbeets: 0
[10]; [20]
  Sugarbeets plant response rating: 0
[10]; [24]
  Sugarbeets plant response rating: 0
[10]; [29]
  Plant response rating, Sugarbeets: 0
[10]; [21]
  Sugarbeets plant response rating: 0
[11]; [22]
  Velvetleaf plant response rating: 0
[11]; [17]
  Velvetleaf plant response rating: 0
[11]; [27]
  Velvetleaf plant response rating (0 to 10 scale): 0
[11]; [28]
  Plant response rating, Velvetleaf: 0
[11]; [20]
  Velvetleaf plant response rating: 0
[11]; [24]
  Velvetleaf plant response rating: 0
[11]; [29]
  Plant response rating, Velvetleaf: 0
[11]; [21]
  Velvetleaf plant response rating: 0
[12]; [22]
  Nutsedge plant response rating: 0
[12]; [23]
  Nutsedge plant response rating: 0
[12]; [17]
  Nutsedge plant response rating: 0
[12]; [18]
  Plant response rating, Nutsedge: 0
[12]; [19]
  Plant response rating, Nutsedge: 0
[12]; [20]
  Nutsedge plant response rating: 0
[12]; [24]
  Nutsedge plant response rating: 0
[12]; [21]
  Nutsedge plant response rating: 0
[13]; [30]
  Rice plant response rating: 0
[13]; [31]
  Rice plant response rating: 0
[13]; [32]
  Plant response rating, Rice: 0
[13]; [33]
  Rice plant response rating: 0
[14]; [30]
  S. Flatsedge plant response rating: 0
[14]; [31]
  S. Flatsedge plant response rating: 0
[14]; [32]
  Plant response rating, S. Flatsedge: 0
[14]; [33]
  S. Flatsedge plant response rating: 0
[15]; [30]
  Ducksalad plant response rating: 0
[15]; [31]
  Ducksalad plant response rating: 0
[15]; [33]
  Ducksalad plant response rating: 0
[15]; [34]
  Ducksalad plant response rating: 0
[16]; [25]
  Barnyardgrass plant response rating: 0
[16]; Rate 125 g/ha, Postemergence section (flood test species), scale 0 to 10, 0 no effect, 10 complete control
  Barnyardgrass plant response rating: 0
[16]; [33]
  Barnyardgrass plant response rating: 0
[16]; [34]
  Barnyardgrass plant response rating: 0
